Laboratory results taken from patent US12390490B2, “Sphingolipid-based selenium compounds, methods for their preparation, and pharmaceutical uses thereof, including as antitumor agents” (MUSC FOUNDATION FOR RESEARCH DEVELOPMENT, priority 2019, dated 2025).
Entries after “also recorded” stand apart in the source; their conditions may differ.

Assays:
HNSCC-1A cells [1] = assay: Cell death / MTT cell viability assay; type: cell-based, human
HNSCC-1A cells [2] = assay: Confocal immunofluorescence, colocalization of ceramide and Tom20; type: cell-based, human; conditions: 1 μM or 4 μM, 1.5 hours, compared to vehicle and LCL-461
HNSCC-1A cells [3] = assay: LC3B-II levels by Western blotting (autophagy); type: cell-based, human; conditions: 4 μM, 1.5 hours
Protocol: LC3B-II levels were measured via Western blotting. Image-processing software was used to quantify the band intensity from the blots.
(§1) Cellular lysates in radioimmunoprecipitation assay (RIPA) buffer containing a protease inhibitor cocktail (Sigma-Aldrich, St. Louis, Missouri, United States of America) were normalized by the total protein level and analyzed by sodium dodecyl sulfate-polyacrylamide gel electrophoresis (SDS-PAGE) and immunoblotting with corresponding antibodies. For immunoprecipitation, precleared cytosolic fractions were incubated overnight with 2 μg of corresponding antibodies at 4° C., followed by 1-hour incubation with Protein A/G Agarose (Santa Cruz Biotechnology, Inc., Dallas, Texas, United States of America) (50 μl of a 50% slurry). Resin was washed three to five times, and pulled-down proteins were analyzed by SDS-PAGE and Western blotting with corresponding antibodies.

HNSCC-1A cells [4] = assay: ACO2 levels by Western blotting (lethal mitophagy); type: cell-based, human; conditions: 4 μM, 48 hours
Protocol: FIG. 6 is a graph showing levels of aconitase 2 (ACO2) (reported as normalized cumulative pixel intensity) in head and neck squamous cell carcinoma (HNSCC-1A) cells incubated with 4 micromolar (μM) concentrations of a pyridinium-substituted ceramide-based compound (LCL-461), the selenite conjugated salt of a pyridinium-substituted ceramide-based compound (LCL-768), or vehicle for 48 hours. ACO2 levels were measured via Western blotting. Image-processing software was used to quantify the band intensity from the blots.

HNSCC-1A cells [5] = assay: ATP levels (lethal mitophagy); type: cell-based, human; conditions: 4 μM, 48 hours
Protocol: FIG. 7 is a graph showing adenosine triphosphate (ATP) activity in head and neck squamous cell carcinoma (HNSCC-1A) cells incubated with 4 micromolar (μM) concentrations of a pyridinium-substituted ceramide-based compound (LCL-461), the selenite conjugated salt of a pyridinium-substituted ceramide-based compound (LCL-768), or vehicle for 48 hours. ATP levels in the samples were measured, and all samples were normalized to a standard curve and then to vehicle activity.

HNSCC organoids [6] = assay: Ex vivo 2D HNSCC patient organoids, CerS1/Tom20 co-localization (mitophagy); type: cell-based, human; conditions: ex vivo treatment
Source text: FIG. 14A is a series of microscopy images showing the H&E staining (top row) and fluorescence imaging of the co-localization of translocase of outer mitochondrial membrane 20 (Tom20) and CerS1 (as a measure of mitophagy, middle row) in two-dimensional (2D) organoids developed from a patient with head and neck squamous cell carcinoma (HNSCC) in response to treatment with vehicle, LCL-768, sodium selenite (SoSe), rapamycin, or cisplatin ex vivo. Co-localization of cis-Golgi matrix protein 130 kDa (GM130) and Calnexin was used as a negative control (bottom row).
FIG. 14B is a graph showing the quantification of colocalization of Tom20 and CerS1 from the treated two-dimensional (2D) organoids described for FIG. 14A.
(§2) To validate the clinical relevance of the activation of mitophagy, 2D organoids^4 were developed using tumor tissues obtained from a patient with HNSCC. […] The co-localization of GM130/Calnexin was used as a control.

[7] = system: non-cancerous adjacent tissue organoids; assay: Ex vivo non-cancerous adjacent tissue organoids, mitophagy; type: cell-based, human; conditions: ex vivo treatment, same patient
Source text: as §2

43RG32 cells = assay: Western blotting of mitophagy markers, 43RG32 cells; type: cell-based, human
Protocol: (§3) FIG. 10 is a composite gel image of Western blot analysis of extracts from non-cancerous human astrocytes (HA), 43RG32 and U118 cells treated with 0 micromolar (0 μM) or 5 μM LCL-768. The effects of LCL-768 on LC3-II activation, aconitase 2 (ACO2) degradation, and dynamin-related GTPase (Drp1) dephosphorylation at […] were measured as markers of mitophagy (n=3).
(§4) 43RG32 and U118 glioblastoma cells were treated with (+) or without (−) 5 micromolar (5 μM) LCL-768 and with (+) or without (−) the Drp1 inhibitor Mdivi-1. Actin was used as a loading control (n=3).
as §1

U118 cells = assay: Western blotting of mitophagy markers, U118 cells; type: cell-based, human
Protocol: as §3, §4, §1

normal murine astrocytes = assay: MTT cell viability, normal murine astrocytes; type: cell-based; conditions: 5 μM, 24 hour treatment
[8] = system: normal human astrocyte (HA) cells; assay: MTT cell viability, normal human astrocytes; type: cell-based; conditions: 5 μM, 24 hour treatment
HNSCC-IA cells = assay: Confocal immunofluorescence, colocalization of CerS1 and mitochondrial protein Tom20; type: cell-based, human; conditions: 1 μM, 3 hours
Protocol: FIG. 3A is a series of confocal microscopy images of cells treated with 1 micromolar (1 μM) concentrations of a pyridinium-substituted ceramide-based selenium conjugated compound (LCL-768) or vehicle for 3 hours and labeled for Ceramide Synthase 1 (CerS1; top row), mitochondria (middle row) or both (bottom row).
UM-SCC-22A (squamous carcinoma) cells (50,000 per well) were plated on glass coverslips in a six-well plate for 18 hours. Cells were fixed and permeabilized using 4% paraformaldehyde (20 min) and 0.1% Triton X-100 in 1× phosphate-buffered saline (PBS) (pH 7.4) for 10 min. The cells were then blocked with 1% bovine serum albumin (BSA)/PBS (pH 7.4) for 1 hour. […] Immunofluorescence was performed using a Leica TCS SP2 AOBS confocal microscope (Leica Microsystems, Wetzler, Germany), an Olympus FV10i microscope (Olympus Corporation, Tokyo, Japan) with 543- and 488-nm channels for visualizing green and red fluorescence, or a Zeiss LSM 880 NLO Quasar confocal/multiphoton microscope with a Fast Airyscan super-resolution detector (Carl Zeiss, AG, Oberkochen, Germany). […] At least three random fields were selected for image quantification.

[9] = system: non-cancerous human astrocytes (HA); conditions: 5 μM
Protocol: as §3, §1

[10] = system: orthotopic GB U118-xenograft-derived tumor; assay: Orthotopic GB U118 xenograft in brains of SCID mice; type: in vivo; conditions: 1 mg/kg/day for 14 days, female SCID mice
UM-SCC-1A cells [11] = assay: CYTO-ID mitophagy detection in UM-SCC-1A cells with shSCR or shLC3; type: cell-based, human
UM-SCC-1A cells [12] = assay: Subcellular accumulation by differential centrifugation and mass spectrometry; type: cell-based, human; conditions: 10 μM, 6-24 hours
Protocol: FIG. 13D is a graph showing the subcellular accumulation of LCL-768 (10 micromolar (μM)) after 0, 3, 6, 9, or 24 hours in the nucleus, mitochondria and cytoplasm of human head and neck squamous cell carcinoma (HNSCC) cells (UM-SCC-1A cells) as measured by mass spectrometry/lipidomics after differential centrifugation.
The effects of LCL-768 on mitophagy induction in UM-SCC-IA cells transfected stably with the shRNA against LC3B (shLC3) was studied and compared to controls (UM-SCC-1A cells transfected with a control shRNA, shSCR). […] The subcellular accumulation of LCL-768 was studied in the same cells. Nucleus, mitochondria and cytoplasm in LCL-768-treated cells were isolated by differential centrifugation and LCL-768 accumulation was measured by mass spectrometry. […] Thus, these studies further support mitochondrial accumulation and efficacy of LCL-768 in inducing mitophagy in UM-SCC-1A cells.

HNSCC organoids [13] = conditions: ex vivo treatment, MALDI-Imaging
Source text: as §2

[14] = Maximum tolerated dose in SCID mice; type: in vivo
UM-SCC-1A-xenografts = system: UM-SCC-1A-xenografts
Source text: Tumor volume (cubic millimeters (mm^3)) is provided for both […] mice and mice treated with vehicle as a control.

HNSCC-1A cells [15] = conditions: 1 and 2.5 μM, live HNSCC-1A cells
[16] = system: murine glioblastoma (GL261) cells; conditions: 5 μM, 24 hour treatment
human glioblastoma cells = conditions: 5 μM, 24 hour treatment, compared to LCL-461 or sodium selenite

Structure (SMILES): CCCCCCCCCCCCCCCCCC(=O)N[C@@H](CO)[C@H](O)/C=C/CCCCCCCCC[n+]1ccccc1.[Br-] [LCL-461, D-erythro-2-N-octadecanoyl-14-(1′-pyridinium)-sphingosine bromide, reference compound]
- IC50 (HNSCC-1A cells [1]; Homo sapiens, 24 hours): ~10 µM
- IC50 (HNSCC-1A cells [1]; Homo sapiens, 48 hours): ~4 µM
- colocalization of ceramide and Tom20 (selenite-stress response) (HNSCC-1A cells [2]): does not cause a strong selenite-stress response
- LC3B-II levels (autophagy) (HNSCC-1A cells [3]): increased LC3B-II levels
- levels of ACO2 compared to vehicle (lethal mitophagy) (HNSCC-1A cells [4]): decreased levels
- levels of ATP compared to vehicle (lethal mitophagy) (HNSCC-1A cells [5]): decreased levels

Structure (SMILES): N.N.[Cl][Pt][Cl] [cisplatin, reference compound]
- mitophagy (co-localization of CerS1 and Tom20) compared to vehicle-treated controls (HNSCC organoids [6]): induced mitophagy
- mitophagy induction in non-cancerous adjacent tissue organoids [7]: did not affect mitophagy induction

Structure (SMILES): COc1cc(-n2c(=S)[nH]c3ccccc3c2=O)c(Cl)cc1Cl [Mdivi-1, reference compound]
- effect of Drp1 inhibition on LCL-768-mediated ACO2 degradation / mitophagy (43RG32 cells; with 5 μM LCL-768): almost completely prevented; also recorded: prevents
- effect of Drp1 inhibition on LCL-768-mediated ACO2 degradation / mitophagy (U118 cells; with 5 μM LCL-768): almost completely prevented; also recorded: prevents

Structure (SMILES): O=[Se](O)O [sodium selenite, reference compound]
- cell death in mouse normal astrocytes (normal murine astrocytes): not induced
- cell death in human normal astrocytes [8]: not induced

Structure (SMILES): CCCCCCCCCCCCCCCCCC(=O)N[C@@H](CO)[C@H](O)/C=C/CCCCCCCCC[n+]1ccccc1.CCCCCCCCCCCCCCCCCC(=O)N[C@@H](CO)[C@H](O)/C=C/CCCCCCCCC[n+]1ccccc1.O=[Se]([O-])[O-] [LCL-768, D-erythro-14-(1′-pyridinium)-N-octadecanoyl-sphingosine selenite]
- IC50 (HNSCC-1A cells [1]; 24 hours): ~10 µM
- IC50 (HNSCC-1A cells [1]; 48 hours): ~4 µM
- colocalization of CerS1 and mitochondrial protein Tom20 (HNSCC-IA cells): significant increase
- colocalization of ceramide and Tom20 (selenite-stress response) (HNSCC-1A cells [2]): increased colocalization
- LC3B-II levels (autophagy) (HNSCC-1A cells [3]): increased LC3B-II levels
- levels of ACO2 compared to vehicle (lethal mitophagy) (HNSCC-1A cells [4]): decreased levels
- levels of ATP compared to vehicle (lethal mitophagy) (HNSCC-1A cells [5]): decreased levels
- cell death in mouse normal astrocytes (normal murine astrocytes): not induced
- cell death in human normal astrocytes [8]: not induced
- ACO2 degradation (mitophagy) (43RG32 cells; 5 μM): induced
- LC-3B-II activation (autophagy marker) (43RG32 cells; 5 μM): induced
- ACO2 degradation (mitophagy) (U118 cells; 5 μM): induced
- LC-3B-II activation (autophagy marker) (U118 cells; 5 μM): induced
- ACO2 degradation (mitophagy) ([9]; HA cells): not
- LC-3B-II activation (autophagy marker) ([9]; HA cells): not
- mitophagy (LC3-II activation, ACO2 degradation, Drp1 dephosphorylation as markers) ([9]; as stated in legend of FIG. 10): induces mitophagy
- tumor growth in the brain (MRI) compared to controls ([10]; osmotic pump into brain tumor): remarkably reduced tumor growth
- increase of survival post-treatment ([10]; osmotic pump, vs vehicle): about 10 days
- mitophagy induction in shSCR-controls (UM-SCC-1A cells [11]; 10 μM, 6, 9 and 24 hours, UM-SCC-1A shSCR): highly induced mitophagy
- mitophagy induction after knockdown of LC3 (UM-SCC-1A cells [11]; 10 μM, UM-SCC-1A shLC3): almost completely prevented
- subcellular accumulation (nucleus, mitochondria, cytoplasm) (UM-SCC-1A cells [12]): largely accumulated in the mitochondria
- mitophagy (co-localization of CerS1 and Tom20) compared to vehicle-treated controls (HNSCC organoids [6]): induced mitophagy
- mitophagy induction in non-cancerous adjacent tissue organoids [7]: did not affect mitophagy induction
- endogenous C24-ceramide compared to controls (HNSCC organoids [13]): decreased
- maximum tolerated dose (MTD) [14]: 10 mg/kg
- tumor growth compared to vehicle-treated mice (UM-SCC-1A-xenografts; 10 mg/kg intraperitoneal every other day, 21 days, SCID mice): inhibited tumor growth significantly
- mitophagy in xenograft-derived tumors (ACO2, P-S637 Drp1, S-NO-Drp1) (UM-SCC-1A-xenografts; day 21, Western blotting): induction of mitophagy
- accumulation in tumor vs adjacent non-tumorigenic tissues (UM-SCC-1A-xenografts; day 21, mass spectrometry): higher tumor accumulation
- time of exposure at which mitophagy is occurring (HNSCC-1A cells [15]): ≤ 90 min
- autophagic cell death in mouse glioblastoma cells [16]: induced autophagic cell death in mouse glioblastoma cells at a higher level than either LCL-461 or sodium selenite
- autophagic cell death in human glioblastoma cells (human glioblastoma cells): induced autophagic cell death
